Experimental data reported in US9271993B2, “Treatment of bacterial infectious diseases” (priority 2010, dated 2016).
In brackets after ≈: the same amount, converted by molar mass. Where two headings read alike, the source gives them in different places.

Experiments:
[1] = system: bacterial ribosomes; experiment: Ribosomal drug susceptibility (MIC) of recombinant bacteria; conditions: Table 10
Protocol: (§1) The recombinants carrying the respective mutational alterations were subjected to determinations of minimal inhibitory concentrations (MIC) to assess ribosomal drug susceptibility. Cultures from single colonies were grown in LB medium supplemented with 0.05% Tween 80 and used for MIC tests in a microtiter plate format. Starting cultures contained 200 μl of bacterial cells at an optical density of 0.025 at 600 nm, and the respective drug was added in twofold series of dilution.

[2] = system: cytohybrid ribosomes; experiment: as above; conditions: Table 10
Protocol: as §1

[3] = system: mitohybrid ribosomes; experiment: as above; conditions: Table 10
Protocol: as §1

[4] = system: clinical methicillin resistant Staphylococcus aureus (MRSA) isolates; experiment: MIC against clinical MRSA isolates, LB microdilution assay
Protocol: Activity was assessed by determination of minimal inhibitory concentrations (MIC), as described in Pfister et al., Antimicrob. […] Cultures from single colonies were grown in LB medium and used for MIC tests in a microtiter plate format. Starting cultures contained 200 μl of bacterial cells at an optical density of 0.025 at 600 nm, and the respective drug was added in twofold series of dilution.

[5] = system: E. coli; experiment: MIC against gram-negative bacteria; type: cell-based; conditions: Escherichia coli, read-out: MIC
Text: Agents Chemother. 2003, 47:1496-1502.

[6] = Staphylococcus aureus, MRSA, MRSA AG038, strain 70-26S Gm^S
[7] = Staphylococcus aureus, MRSA, MRSA AG041, strain 98-25S Gm^S
[8] = Staphylococcus aureus, MRSA, MRSA AG043, strain 01-08R Gm^R
[9] = Staphylococcus aureus, MRSA, MRSA AG044, strain 07-12R Gm^R
[10] = Staphylococcus aureus, MRSA, MRSA AG045, strain 08-12R Gm^R
[11] = Staphylococcus aureus, MRSA, MRSA AG053, strain 56-06R Gm^R
[12] = E. coli AG02, clin. isol (Gm^S)
[13] = E. coli AG03, clin. isol (Gm^R)
[14] = E. coli AG07, BM13/pIP135, resistance mechanism AAC(3)
[15] = E. coli AG08, BM13/pIP055, resistance mechanism ANT(2″)
[16] = E. coli AG09, AAC(6′)-1B, resistance mechanism AAC(6′)
[17] = E. coli AG36, HB101/pAT197, resistance mechanism ANT(4′)
[18] = E. coli AG37, HB101/pAG21-1, resistance mechanism APH(3′)

Q: For `CC(=O)O.CC(=O)O.CC(=O)O.CC(=O)O.CN1C(=O)OC2C3OC(OC4C(N)CC(N)C(O)C4O)C(N)CC3OC(OC3OC(CO)C(NC(=O)C(O)CCN)C(O)C3O)C21` [ETH 99, 7′-N,6′-O-Carbonyl-4″-N-[(2S)-4-amino-2-hydroxybutyryl]apramycin tetraacetate], which “MIC, wild type bacteria” value [1] is on record?
A: 2.0 to 4.0 µg/mL

Q: And the “MIC, bacteria with cytohybrid ribosome” value [2]?
A: >256.0 µg/mL

Q: And the “MIC, bacteria with mitohybrid ribosome” value [3]?
A: >256.0 µg/mL

Q: `CC(=O)O.CC(=O)O.CC(=O)O.CC(=O)O.CN[C@@H]1[C@@H](O[C@H]2O[C@H](CO)[C@@H](N)[C@H](O)[C@H]2O)O[C@H]2C[C@@H](NC(=O)[C@@H](O)CCN)[C@@H](O[C@H]3[C@H](O)[C@@H](O)[C@H](N)C[C@@H]3N)O[C@@H]2[C@@H]1O` [ETH 100, 2′-N-[(2S)-4-Amino-2-hydroxybutyryl]apramycin tetraacetate] was tested. Which “MIC, wild type bacteria” value [1] did it give?
A: 2.0 to 4.0 µg/mL

Q: What about the “MIC, bacteria with cytohybrid ribosome” value [2] of the same molecule?
A: >256.0 µg/mL

Q: What about the “MIC, bacteria with mitohybrid ribosome” value [3] of the same molecule?
A: >256.0 µg/mL

Q: With `CC(=O)O.CC(=O)O.CC(=O)O.CC(=O)O.CNC1C(OC2OC(CO)C(N)C(O)C2O)OC2CC(N)C(OC3C(N)CC(NC(=O)C(O)CCN)C(O)C3O)OC2C1O` [ETH 102, 1-N-[(2S)-4-Amino-2-hydroxybutyryl]apramycin tetraacetate] as the molecule, how does the “MIC, wild type bacteria” value [1] read?
A: 4.0 µg/mL

Q: What about the “MIC, bacteria with cytohybrid ribosome” value [2] of the same molecule?
A: >256.0 µg/mL

Q: What about the “MIC, bacteria with mitohybrid ribosome” value [3] of the same molecule?
A: >256.0 µg/mL

Q: How did the “MIC, wild type bacteria” value [1] turn out when `CC(=O)O.CC(=O)O.CC(=O)O.CC(=O)O.CNC1C(OC2OC(CO)C(N)C(O)C2O)OC2CC(NC(=O)C(O)CCN3C(=O)c4ccccc4C3=O)C(OC3C(N)CC(N)C(O)C3O)OC2C1O` (centres unmarked) [ETH 103] was run?
A: 8.0 µg/mL

Q: And the “MIC, bacteria with cytohybrid ribosome” value [2]?
A: >256.0 µg/mL

Q: And the “MIC, bacteria with mitohybrid ribosome” value [3]?
A: >256.0 µg/mL

Q: `CNC1C(OC2OC(CO)C(NC(=O)C(O)CCN)C(O)C2O)OC2CC(N)C(OC3C(N)CC(N)C(O)C3O)OC2C1O` [ETH 105, 4″-N-[(2S)-4-Amino-2-hydroxybutyryl]apramycin] was tested. Which “MIC, wild type bacteria” value [1] did it give?
A: 4.0 µg/mL

Q: What about the “MIC, bacteria with cytohybrid ribosome” value [2] of the same molecule?
A: >256.0 µg/mL

Q: What about the “MIC, bacteria with mitohybrid ribosome” value [3] of the same molecule?
A: >256.0 µg/mL

Q: For `NC[C@@H]1O[C@H](O[C@H]2[C@@H](O)[C@H](O[C@@H]3[C@@H](O)[C@H](N)C[C@H](N)[C@H]3O[C@H]3O[C@H](CO)[C@@H](O)[C@H](O)[C@H]3N)O[C@@H]2CO)[C@H](N)[C@@H](O)[C@@H]1O` [Paromomycin], which MIC ([4]; MRSA AG040, strain 87-26S Gm^S) is on record?
A: >256 µg/mL

Q: And the MIC ([4]; MRSA AG046, strain 12-06R Gm^R)?
A: >256 µg/mL

Q: What about the MIC ([4]; MRSA AG047, strain 18-06R Gm^R) of the same molecule?
A: >256 µg/mL

Q: And the MIC ([4]; MRSA AG048, strain 20-06R Gm^R)?
A: >256 µg/mL

Q: What about the MIC ([4]; MRSA AG049, strain 23-12R Gm^R) of the same molecule?
A: >256 µg/mL

Q: What about the MIC ([4]; MRSA AG050, strain 31-06R Gm^R) of the same molecule?
A: >256 µg/mL

Q: And the MIC ([4]; MRSA AG051, strain 36-06R Gm^R)?
A: >256 µg/mL

Q: And the MIC ([4]; MRSA AG052, strain 53-14I Gm^R)?
A: >256 µg/mL

Q: And the MIC ([4]; Staphylococcus aureus, MRSA)?
A: > 256 µg/mL

Q: And the MIC [4, 6]?
A: 2 to 4 µg/mL (≈ 3.25 to 6.5 µM)

Q: What about the MIC [4, 7] of the same molecule?
A: 4 µg/mL (≈ 6.5 µM)

Q: What about the MIC [4, 8] of the same molecule?
A: 4 to 8 µg/mL (≈ 6.5 to 13 µM)

Q: And the MIC [4, 9]?
A: 2 to 4 µg/mL (≈ 3.25 to 6.5 µM)

Q: And the MIC [4, 10]?
A: 4 µg/mL (≈ 6.5 µM)

Q: What about the MIC [4, 11] of the same molecule?
A: 2 to 4 µg/mL (≈ 3.25 to 6.5 µM)

Q: And the MIC ([5]; E. coli AG01, clin. isol. (Gm^S))?
A: 16 to 32 µg/mL (≈ 26 to 52 µM)

Q: And the MIC [5, 12]?
A: 8 to 16 µg/mL (≈ 13 to 26 µM)

Q: And the MIC [5, 13]?
A: 8 to 16 µg/mL (≈ 13 to 26 µM)

Q: And the MIC ([5]; E. coli AG06, BM13)?
A: 2 µg/mL (≈ 3.25 µM)

Q: What about the MIC [5, 14] of the same molecule?
A: 8 µg/mL (≈ 13 µM)

Q: What about the MIC [5, 15] of the same molecule?
A: 4 to 8 µg/mL (≈ 6.5 to 13 µM)

Q: And the MIC [5, 16]?
A: 8 to 16 µg/mL (≈ 13 to 26 µM)

Q: What about the MIC [5, 17] of the same molecule?
A: 256 µg/mL (≈ 416 µM)

Q: What about the MIC [5, 18] of the same molecule?
A: > 256 µg/mL

Q: With `CN[C@@H]1[C@@H](O)[C@@H](O[C@@H]2[C@@H](O)[C@H](O[C@H]3OC(CN)=CC[C@H]3N)[C@@H](N)C[C@H]2N)OC[C@]1(C)O` [Sisomicin] as the molecule, how does the MIC [4, 6] read?
A: 0.25 µg/mL (≈ 0.559 µM)

Q: What about the MIC ([4]; Staphylococcus aureus, MRSA, MRSA AG040, strain 87-26S Gm^S) of the same molecule?
A: 0.25 µg/mL (≈ 0.559 µM)

Q: What about the MIC [4, 7] of the same molecule?
A: 0.25 µg/mL (≈ 0.559 µM)

Q: And the MIC ([4]; Staphylococcus aureus, MRSA, MRSA AG042, strain 101-06R Gm^R)?
A: 32 µg/mL (≈ 71.5 µM)

Q: What about the MIC [4, 8] of the same molecule?
A: 32 to 64 µg/mL (≈ 71.5 to 143 µM)

Q: And the MIC [4, 9]?
A: 8 µg/mL (≈ 17.9 µM)

Q: And the MIC [4, 10]?
A: 4 to 8 µg/mL (≈ 8.94 to 17.9 µM)

Q: And the MIC ([4]; Staphylococcus aureus, MRSA, MRSA AG046, strain 12-06R Gm^R)?
A: > 256 µg/mL

Q: And the MIC ([4]; Staphylococcus aureus, MRSA, MRSA AG047, strain 18-06R Gm^R)?
A: > 256 µg/mL

Q: And the MIC ([4]; Staphylococcus aureus, MRSA, MRSA AG048, strain 20-06R Gm^R)?
A: > 256 µg/mL

Q: And the MIC ([4]; Staphylococcus aureus, MRSA, MRSA AG049, strain 23-12R Gm^R)?
A: 8 µg/mL (≈ 17.9 µM)

Q: What about the MIC ([4]; Staphylococcus aureus, MRSA, MRSA AG050, strain 31-06R Gm^R) of the same molecule?
A: 128 to 256 µg/mL (≈ 286 to 572 µM)

Q: And the MIC ([4]; Staphylococcus aureus, MRSA, MRSA AG051, strain 36-06R Gm^R)?
A: 64 µg/mL (≈ 143 µM)

Q: And the MIC ([4]; Staphylococcus aureus, MRSA, MRSA AG052, strain 53-14I Gm^R)?
A: 8 µg/mL (≈ 17.9 µM)

Q: What about the MIC [4, 11] of the same molecule?
A: 32 µg/mL (≈ 71.5 µM)

Q: And the MIC [5, 12]?
A: 1 µg/mL (≈ 2.23 µM)

Q: And the MIC [5, 13]?
A: 32 to 128 µg/mL (≈ 71.5 to 286 µM)

Q: And the MIC ([5]; E. coli AG06, BM13)?
A: 0.25 µg/mL (≈ 0.559 µM)

Q: And the MIC [5, 14]?
A: 16 µg/mL (≈ 35.8 µM)

Q: What about the MIC [5, 15] of the same molecule?
A: 8 µg/mL (≈ 17.9 µM)

Q: What about the MIC [5, 16] of the same molecule?
A: 16 µg/mL (≈ 35.8 µM)

Q: And the MIC [5, 17]?
A: 0.25 µg/mL (≈ 0.559 µM)

Q: What about the MIC [5, 18] of the same molecule?
A: 0.125 µg/mL (≈ 0.279 µM)
